# In patent publication US20140357512A1, “HISTONE DEACETYLASE (HDAC) BIOMARKERS IN MULTIPLE MYELOMA” (priority 2013, published 2014):
# Tested on: human myeloma cell line MM.1S
# Assay: SILAC acetylated-lysine peptide profiling, HDAC inhibitor vs DMSO (light/heavy ratio)
# Type: cell-based
# Source text: An embodiment of the invention comprises utilizing the SILAC method in order to quantitate changes in protein expression between two or more populations of cells. The SILAC method is a technique based on mass spectrometry that detects differences in protein abundance among samples using non-radioactive isotopic labeling. The SILAC method is known in the art, and described in detail in Ong et al., “Stable Isotope Labeling by Amino Acids in Cell Culture, SILAC, as a Simple and Accurate Approach to Expression Proteomics”, Molecular & Cellular Proteomics, vol. 1, pp. 376-386 (2002), which is incorporated herein by reference in its entirety.
# Briefly, the SILAC method involves growing two populations of cells in cell culture. The first population of cells is grown in growth media containing normal amino acids (“normal media”). The second population of cells is grown in media lacking a standard essential amino acid (such as lysine), but is then supplemented with a non-radioactive, isotopically labeled form of that essential amino acid (such as lysine labeled with ^13C atoms, rather than normal ^12C atoms), which is called “heavy media”. When the two populations of cells are each growing in the medium, they incorporate the amino acids into all of their proteins. The growth of cells maintained in the heavy media is no different from that in normal media. All peptides containing the heavy amino acids are heavier than their normal counterparts. The cells from each of the two populations of cells are lysed. The lysates from each of the two cell populations are then combined. The combined cell lysates are then analyzed by mass spectrometry. Pairs of chemically identical peptides of different stable isotope composition can be differentiated in a mass spectrometer due to their difference in mass. The ratio of peak intensities in the mass spectrum for such peptide pairs reflects the abundance ratio for the two proteins.
# This example describes SILAC studies that were performed to compare the effects of three different HDAC inhibitors (Compound A, Compound B, and tubastatin A) to a control on a human multiple myeloma cell line. The HDAC inhibitors were also compared amongst themselves to determine differences in their effects.
# A human myeloma cell line MM.1S was grown using either ^12C (light) or ^13C (heavy) lysine containing culture medium. The “heavy” cells were treated with DMSO as the control, and the “light” cells were treated with a single HDAC inhibitor at 37° C. for 6 hours. The heavy and light cells were lysed, and the lysates were mixed in 1:1 ratio and digested with the protease trypsin. The acetylated lysine containing peptides (due to the action of the HDAC inhibitor) in the digested peptide pool were captured by a non-specific anti-acetylated lysine antibody cocktail (the antibodies identify both light and heavy acetylated peptides), and subjected to mass spectrometry analysis in order to identify thousands of individual peptides.
# Thousands of peptides were identified in pairs (^12C and ^13C) due to their known mass differences. The amino acid sequence and quantitative ratio (Light/Heavy) of a given peptide in two differentially treated cell lysates were then determined and annotated with their possible protein (gene) sources.
# As stated above, three HDAC inhibitors (Compound A, Compound B, and Tubastatin A) were used. Thus, the SILAC method was performed three times, with a different HDAC inhibitor compared to a control each time. Accordingly, there are three pairs of quantitative data in the table below, i.e., Compound A:DMSO, Compound B:DMSO, and Tubastatin A:DMSO. A cut-off of 1.30 fold of change (increase or decrease) was then used to determine “changed” or “+” in the table, and any peptides with a fold of change less than 1.3 fold were determined to be “unchanged” or “0” in the table. Those peptides that were not identified were marked as “NA” in the table. […]
structure (smiles),measurement,setting,value
"O=C(CCCCCCNC(=O)c1cnc(N(c2ccccc2)c2ccccc2)nc1)NO [Compound A, 2-(diphenylamino)-N-(7-(hydroxyamino)-7-oxoheptyl)pyrimidine-5-carboxamide]",L/H ratio of acetylated peptide (ac)[…](ac)AAK (SEQ ID NO: 6),"VDAC3 [12], log 2 scale, drug vs DMSO",0.00
same,L/H ratio of acetylated peptide YK(ac)[…] (SEQ ID NO: 117),"VDAC3 [63], log 2 scale, drug vs DMSO",0.00
same,"light to heavy ratio (L/H ratio) of acetylated peptide, log 2 scale","VGIVGK(ac)YGTR (SEQ ID NO: 250), 60S ribosomal protein L37a [13], RPL37A",−0.44
same,L/H ratio of acetylated peptide TNEK(ac)VELQELNDR (SEQ ID NO: 122),"VIM [104], log 2 scale, drug vs DMSO",0.00
same,L/H ratio of acetylated peptide FANYIDK(ac)VR (SEQ ID NO: 118),"VIM [120], log 2 scale, drug vs DMSO",0.00
same,L/H ratio of acetylated peptide […](ac)GQGK (SEQ ID NO: 119),"VIM [139], log 2 scale, drug vs DMSO",0.00
same,L/H ratio of acetylated peptide SK(ac)[…] (SEQ ID NO: 121),"VIM [294], log 2 scale, drug vs DMSO",0.00
same,L/H ratio of acetylated peptide LQDEIQNMK(ac)EEMAR (SEQ ID NO: 120),"VIM [373], log 2 scale, drug vs DMSO",0.00
same,light to heavy ratio (L/H ratio) of acetylated peptide […](ac)QLFR (SEQ ID NO: 321),"Vesicle-trafficking protein SEC22b [38], SEC22B, drug:DMSO",1.00 log 2
same,"light to heavy ratio (L/H ratio), log 2 scale, acetylated peptide EK(ac)LQEEMLQR (SEQ ID NO: 762)","Vimentin [188], gene VIM, drug:DMSO",0.92
same,light to heavy ratio (L/H ratio) of acetylated peptide TLLIK(ac)TVETR (SEQ ID NO: 269),"Vimentin [445], VIM, drug:DMSO",0.45 log 2
same,light to heavy ratio (L/H ratio) of acetylated peptide IAAYK(ac)SILQER (SEQ ID NO: 531),"X-ray repair cross-complementing protein 5 [265], gene XRCC5, inhibitor:DMSO",−0.41 log 2
same,light to heavy ratio (L/H ratio) of acetylated peptide EEAIK(ac)FSEEQR (SEQ ID NO: 509),"X-ray repair cross-complementing protein 5 [648], gene XRCC5, inhibitor:DMSO",−0.60 log 2
same,light to heavy ratio (L/H ratio) of acetylated peptide FNNFLK(ac)ALQEK (SEQ ID NO: 545),"X-ray repair cross-complementing protein 5 [660], gene XRCC5, inhibitor:DMSO",0.39 log 2
same,light to heavy ratio (L/H ratio) of acetylated peptide […](ac)HFQD (SEQ ID NO: 355),"X-ray repair cross-complementing protein 6 [605], XRCC6, drug:DMSO",0.00 log 2
same,L/H ratio of acetylated peptide ALQEK(ac)VEIK (SEQ ID NO: 123),"XRCC5 [665], log 2 scale, drug vs DMSO",0.00
same,"light to heavy ratio (L/H ratio) of acetylated peptide, log 2 scale","YNCDK(ac)MICR (SEQ ID NO: 254), Ubiquitin-605 ribosomal protein L40 [93], UBA52",0.38
same,light to heavy ratio (L/H ratio) of acetylated peptide YFLDK(ac)TLTSR (SEQ ID NO: 293),"[3-methyl-2-oxobutanoate dehydrogenase [lipoamide]] kinase mitochondrial [192], BCKDK, drug:DMSO",0.68 log 2
same,L/H ratio of acetylated peptide,"[…](ac)MVAAK (SEQ ID NO: 491), Cyclic AMP-dependent transcription factor ATF-4 [267], ATF4",−1.00 log 2
same,L/H ratio of acetylated peptide,"[…](ac)YPLR (SEQ ID NO: 493), Isoform 1 of NADH-cytochrome b5 reductase 3 [42], CYB5R3",−1.00 log 2
same,light to heavy ratio (L/H ratio) of acetylated peptide SAYFAEK(ac)LYK (SEQ ID NO: 292),"annexin A4 [255], ANXA4, drug:DMSO",0.67 log 2
same,light to heavy ratio (L/H ratio) of acetylated peptide TLFVK(ac)[…] (SEQ ID NO: 511),"cDNA FLJ45706 fis clone FEBRA2028457 highly similar to Nucleolin [470], gene NCL, inhibitor:DMSO",−0.59 log 2
same,light to heavy ratio (L/H ratio) of acetylated peptide ILMSK(ac)PVLSGGTGR (SEQ ID NO: 291),"cDNA FLJ55380 highly similar to Protein kinase C-binding protein 1 [440], ZMYND8, drug:DMSO",0.67 log 2
same,light to heavy ratio (L/H ratio) of acetylated peptide YDGK(ac)WEVEEMK (SEQ ID NO: 274),"cDNA FLJ55574 highly similar to Calnexin [138], CANX, drug:DMSO",0.48 log 2
same,light to heavy ratio (L/H ratio) of acetylated peptide LNK(ac)PFLFDTK (SEQ ID NO: 327),"cDNA FLJ55574 highly similar to Calnexin [172], CANX, drug:DMSO",0.00 log 2
same,light to heavy ratio (L/H ratio) of acetylated peptide LIGK(ac)QGR (SEQ ID NO: 629),"cDNA FLJ56047 highly similar to A kinase anchor protein 1 mitochondrial [667], gene AKAP1, inhibitor:DMSO",0.49 log 2
same,light to heavy ratio (L/H ratio) of acetylated peptide LLASK(ac)SLLNR (SEQ ID NO: 322),"cDNA FLJ56303 highly similar to Translocon-associated protein subunit beta [46], SSR2, drug:DMSO",1.00 log 2
same,light to heavy ratio (L/H ratio) of acetylated peptide LPSSTK(ac)SGWPR (SEQ ID NO: 500),"cDNA FLJ75110 highly similar to Homo sapiens PHD finger protein 15 (PHF15) mRNA [38], gene PHF15, inhibitor:DMSO",−0.78 log 2
same,light to heavy ratio (L/H ratio) of acetylated peptide IINEVSK(ac)[…] (SEQ ID NO: 341),"cDNA FLJ77177 highly similar to Homo sapiens arginine-rich mutated in early stage tumors (ARMET) mRNA [97], MANF, drug:DMSO",0.00 log 2
same,light to heavy ratio (L/H ratio) of acetylated peptide TNVPVK(ac)LFAR (SEQ ID NO: 348),"cDNA FLJ77422 highly similar to Homo sapiens RNA binding protein autoantigenic (hnRNP-associated with lethal yellow homolog (mouse)) transcript variant 1 mRNA (Fragment) [165], RALY, drug:DMSO",0.00 log 2
same,light to heavy ratio (L/H ratio) of acetylated peptide EIAQEFK(ac)TDLR (SEQ ID NO: 337),"histone cluster 2 H3 pseudogene 2 [80], HIST2H3PS2, drug:DMSO",0.00 log 2
same,light to heavy ratio (L/H ratio) of acetylated peptide GSK(ac)[…] (SEQ ID NO: 265),"membrane-associated progesterone receptor component 2 [159], PGRMC2, drug:DMSO",0.43 log 2
same,light to heavy ratio (L/H ratio) of acetylated peptide SK(ac)SDPIMLLK (SEQ ID NO: 255),"pyruvate dehydrogenase E1 component subunit alpha somatic form mitochondrial isoform 2 precursor [351], PDHA1, drug:DMSO",0.39 log 2
same,light to heavy ratio (L/H ratio) of acetylated peptide VTNLLMLK(ac)GK (SEQ ID NO: 350),"regulator of differentiation 1 isoform 2 [64], ROD1, drug:DMSO",0.00 log 2
same,light to heavy ratio (L/H ratio) of acetylated peptide LTSLNVK(ac)YNNDK (SEQ ID NO: 590),"regulator of differentiation 1 isoform 2 [236], gene ROD1, inhibitor:DMSO",0.44 log 2
same,light to heavy ratio (L/H ratio) of acetylated peptide GWLK(ac)[…] (SEQ ID NO: 278),"triosephosphate isomerase isoform 2 [231], TPI1, TPI1P1, drug:DMSO",0.54 log 2
